Test results reported in patent US20110190503A1, “Thiazolopyridin-2-yloxy-phenyl and thiazolopyrazin-2-yloxy-phenyl amines as modulators of leukotriene A4 hydrolase” (Janssen Pharmaceutical NV, priority 2008, published 2011).

Columns and labels:
[1] = target: T1, recombinant human LTA4 hydrolase (rhLTA4H) (Homo sapiens, UniProt P09960); assay: Recombinant human LTA4 hydrolase assay for LTA4 hydrolase inhibitor activity; assay type: biochemical; details: rhLTA4H, LTA4 substrate, LTB4 by immunoassay; single determination or average; read-out: IC50
T1 construct: made in house; host or cells: Spodoptera frugiperda (Sf-9) cells, recombinant baculovirus (pFastBac1)
T1 sequence (P09960 1-611): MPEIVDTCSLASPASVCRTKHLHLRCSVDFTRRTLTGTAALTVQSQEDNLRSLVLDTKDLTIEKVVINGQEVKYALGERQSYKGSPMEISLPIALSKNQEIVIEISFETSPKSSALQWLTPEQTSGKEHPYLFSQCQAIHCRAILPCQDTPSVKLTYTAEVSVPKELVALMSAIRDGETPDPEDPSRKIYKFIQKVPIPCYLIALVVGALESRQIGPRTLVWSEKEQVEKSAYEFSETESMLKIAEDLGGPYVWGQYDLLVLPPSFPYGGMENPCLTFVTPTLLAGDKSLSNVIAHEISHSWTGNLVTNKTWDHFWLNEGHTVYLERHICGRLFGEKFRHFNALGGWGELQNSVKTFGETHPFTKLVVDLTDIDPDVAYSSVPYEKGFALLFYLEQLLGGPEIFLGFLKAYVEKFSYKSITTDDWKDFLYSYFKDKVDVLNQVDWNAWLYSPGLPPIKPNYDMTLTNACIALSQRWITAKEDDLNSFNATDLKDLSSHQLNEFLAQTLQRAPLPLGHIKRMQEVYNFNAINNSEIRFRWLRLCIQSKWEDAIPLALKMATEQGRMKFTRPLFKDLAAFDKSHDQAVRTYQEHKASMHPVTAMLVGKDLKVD
Method in brief: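 LTB4 formed from LTA4 substrate (free acid from the methyl ester) was quantified by enzyme immunoassay after a 30 min rt reaction. Enzyme was 10 ng Sf-9-expressed human LTA4 hydrolase, pre-incubated 10 min with compound.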

[2] = test system: LTB4 production by calcium ionophore-stimulated murine blood; assay: LTB4 production by calcium ionophore-stimulated murine blood for LTA4H inhibitor activity; assay type: cell-based, CD-1 mice; details: Mus musculus; murine blood diluted 1 in 15, calcium ionophore A23187, LTB4 by immunoassay; read-out: IC50
Protocol: Assay 2: LTB4 Production by Calcium Ionophore-Stimulated Murine Blood for LTA4H Inhibitor Activity
CD-1 mice were sacrificed, and blood was collected in heparin-containing syringes by cardiac puncture. […] After the microtiter plate contents were incubated for 15 min at 37° C. in a humidified incubator, calcium ionophore A23187 (Sigma Chemical Co., St. Louis, Mo.) was added to each sample well (final concentration=7 μg/mL). The incubation was continued under the same conditions for an additional 30 min to allow LTB4 formation. The reaction was terminated by centrifugation (833×g, 10 min at 4° C.), and supernatants were analyzed for LTB4 by a commercially available enzyme-linked immunoassay (Cayman Chemical Co.) according to the manufacturer's instructions. Positive controls, under essentially identical conditions but without addition of an inhibitor compound, and negative unstimulated controls, containing all assay components except calcium ionophore, were routinely run in each experiment. […] The values presented here are the result of a single determination or an average of two or more determinations, as indicated in parentheses following each value. For compounds tested three or more times, the average value is followed by the standard deviation

**Q.** With `c1ccc(OC2CCN(Cc3ccc(Oc4nc5ncccc5s4)cc3)CC2)cc1` [Example 260, 2-{4-[(4-Phenoxypiperidin-1-yl)methyl]phenoxy}[1,3]thiazolo[4,5-b]pyridine] as the molecule, how does the IC50 [1] read?
**A.** Its IC50 is 8 nM.

**Q.** What about the IC50 [2] of the same molecule?
**A.** Its IC50 is 43 nM.

**Q.** `CC(=O)N[C@H]1C[C@H]2CC[C@@H](C1)N2Cc1ccc(Oc2nc3cnccc3s2)cc1` [Example 134, meso-N-{(3-endo)-8-[4-([1,3]Thiazolo[4,5-c]pyridin-2-yloxy)benzyl]-8-azabicyclo[3.2.1]oct-3-yl}acetamide] was tested. Which IC50 [1] did it give?
**A.** Its IC50 is 38 nM.

**Q.** What about the IC50 [2] of the same molecule?
**A.** Its IC50 is 180 nM.

**Q.** With `CC(=O)N1[C@@H]2CC[C@H]1C[C@@H](NCCOc1ccc(Oc3nc4ncccc4s3)cc1)C2` [Example 159, meso-(3-endo)-8-acetyl-N-{2-[4-([1,3]thiazolo[4,5-b]pyridin-2-yloxy)phenoxy]ethyl}-8-azabicyclo[3.2.1]octan-3-amine] as the molecule, how does the IC50 [1] read?
**A.** The IC50 was 9 nM.

**Q.** And the IC50 [2]?
**A.** The IC50 was 82 nM.

**Q.** How did the IC50 [1] turn out when `NC(=O)N1CC2CN(CCc3ccc(Oc4nc5ncccc5s4)cc3)CC2C1` (stereo not drawn) [Example 74, 5-{2-[4-([1,3]Thiazolo[4,5-b]pyridin-2-yloxy)Phenyl]ethyl}hexahydropyrrolo[3,4-c]pyrrole-2(1H)-carboxamide] was run?
**A.** Its IC50 is 6.5 nM.

**Q.** And the IC50 [2]?
**A.** Its IC50 is 230 nM.

**Q.** Which results are given for `CC(=O)N[C@H]1C[C@H]2CC[C@@H](C1)N2Cc1ccc(Oc2nc3nccc(C)c3s2)cc1` [Example 289, meso-endo-N-[8-{4-[(7-Methyl[1,3]thiazolo[4,5-b]pyridin-2-yl)oxy]benzyl}-8-azabicyclo[3.2.1]oct-3-yl]acetamide]?
**A.** IC50 [1]: 9 nM; IC50 [2]: 542 nM

**Q.** Which results are given for `c1cnc2nc(Oc3ccc(OCCN4CCC(c5ccncc5)CC4)cc3)sc2c1` [Example 29, 2-{4-[2-(4-Pyridin-4-ylpiperidin-1-yl)ethoxy]phenoxy}[1,3]thiazolo[4,5-b]pyridine]?
**A.** IC50 [1]: 13 nM; IC50 [2]: 180 nM

**Q.** With `c1cnc2nc(Oc3ccc(OCCN4CCC(Oc5ccncc5)CC4)cc3)sc2c1` [Example 13, 2-(4-{2-[4-(Pyridin-4-yloxy)piperidin-1-yl]ethoxy}phenoxy)[1,3]thiazolo[4,5-b]pyridine] as the molecule, how does the IC50 [1] read?
**A.** Its IC50 is 13 nM.

**Q.** And the IC50 [2]?
**A.** Its IC50 is 120 nM.

**Q.** How did the IC50 [1] turn out when `CC(=O)N1C[C@H]2CC[C@@H](C1)N2Cc1ccc(Oc2nc3ncccc3s2)cc1` [Example 107, meso-2-(4-{[3-Acetyl-3,8-diazabicyclo[3.2.1]oct-8-yl]methyl}phenoxy)[1,3]thiazolo[4,5-b]pyridine] was run?
**A.** The IC50 was 4 nM.

**Q.** What about the IC50 [2] of the same molecule?
**A.** The IC50 was 3000 nM.

**Q.** With `c1cnc2nc(Oc3ccc(OCCN4CCOCC4)cc3)sc2c1` [Example 11, 2-[4-(2-Morpholin-4-ylethoxy)phenoxy][1,3]thiazolo[4,5-b]pyridine] as the molecule, how does the IC50 [1] read?
**A.** The IC50 was 98 nM.

**Q.** What about the IC50 [2] of the same molecule?
**A.** Its IC50 is 190 nM.

**Q.** `c1cnc2nc(Oc3ccc(CN4CCC(N5CCCCC5)CC4)cc3)sc2c1` [Example 256, 1′-[4-([1,3]Thiazolo[4,5-b]pyridin-2-yloxy)benzyl]-1,4′-bipiperidine] was tested. Which IC50 [1] did it give?
**A.** The IC50 was 87 nM.

**Q.** And the IC50 [2]?
**A.** Its IC50 is 178 nM.

**Q.** Which IC50 [1] does the source give for `NC(=O)N1[C@@H]2CC[C@H]1CN(CCOc1ccc(Oc3nc4ncccc4s3)cc1)C2` [Example 149, meso-3-{2-[4-([1,3]Thiazolo[4,5-b]pyridin-2-yloxy)phenoxy]ethyl}-3,8-diazabicyclo[3.2.1]octane-8-carboxamide] here?
**A.** Its IC50 is 63 nM.

**Q.** And the IC50 [2]?
**A.** The IC50 was 180 nM.

**Q.** Which IC50 [1] does the source give for `OC1(c2ccccc2)CCN(CCOc2ccc(Oc3nc4nccnc4s3)cc2)CC1` [Example 22, 4-Phenyl-1-{2-[4-([1,3]thiazolo[4,5-b]pyrazin-2-yloxy)phenoxy]ethyl}piperidin-4-ol] here?
**A.** Its IC50 is 62 nM.

**Q.** And the IC50 [2]?
**A.** Its IC50 is 200 nM.

**Q.** What does the source list for `NC(=O)N[C@H]1C[C@H]2CC[C@@H](C1)N2CCc1ccc(Oc2nc3ncccc3s2)cc1` [Example 77, meso-1-[(3-endo)-8-{2-[4-([1,3]Thiazolo[4,5-b]pyridin-2-yloxy)Phenyl]ethyl}-8-azabicyclo[3.2.1]oct-3-yl]urea]?
**A.** IC50 [1]: 2.9 nM; IC50 [2]: 190 nM

**Q.** For `Clc1cnc2nc(Oc3ccc(CN4CCCCC4)cc3)sc2c1` [Example 279, 6-Chloro-2-(4-piperidin-1-ylmethyl-phenoxy)[1,3]thiazolo[4,5-b]pyridine], which IC50 [2] is on record?
**A.** Its IC50 is 550 nM.
